Measured values published in patent US8124788B2, “Spirocyclic cyclohexane compounds with analgesic activity” (Gruenenthal GmbH, priority 2006, dated 2012).

Biological target: T1, human μ opiate receptor (Homo sapiens, UniProt P35372)
T1 construct: purchased PerkinElmer Life Sciences, Zaventem, Belgium RB-HOM; host or cells: CHO-K1 cells (recombinant expression)
Assay: Affinity for the human μ opiate receptor ([3H]-naloxone displacement, CHO-K1 membrane preparation, SPA)
Format: binding
Details: for μ opioid receptor [1 μmol], % inhibition: compounds prepared via automated synthesis, single measurements at a test concentration of 1 μM
Method: The receptor affinity for the human μ opiate receptor is determined in a homogeneous set-up in microtitre plates. For this purpose, dilution series of the substances to be tested are incubated with a receptor membrane preparation (15-40 μg of protein/250 μl of incubation batch) of CHO-K1 cells which express the human μ opiate receptor (RB-HOM receptor membrane preparation from PerkinElmer Life Sciences, Zaventem, Belgium) in the presence of 1 nmol/l of the radioactive ligand [^3H]-naloxone (NET719, PerkinElmer Life Sciences, Zaventem, Belgium) and 1 mg of WGA-SPA-Beads (wheat germ agglutinin SPA beads from Amersham/Pharmacia, Freiburg, Germany) in a total volume of 250 μl for 90 minutes at room temperature. 50 mmol/l of Tris-HCl supplemented with 0.06% of bovine serum albumin are used as the incubation buffer. 100 μmol/l of naloxone are additionally added for determination of the non-specific binding. After the end of the ninety-minute incubation time, the microtitre plates are centrifuged for 20 minutes at 1,000 g and the radioactivity is measured in a β-counter (Microbeta-Trilum, PerkinElmer Wallac, Freiburg, Germany). The percentage displacement of the radioactive ligand from its binding to the human μ opiate receptor is determined at a concentration of the test substances of 1 μmol/l and stated as the percentage inhibition of the specific binding. Starting from the percentage displacement by various concentrations of the test substances, IC50 inhibitory concentrations which cause a 50 percent displacement of the radioactive ligand are calculated. By conversion by means of the Cheng-Prusoff relationship, Ki values for the test substances are obtained.

T1 sequence (P35372 whole entry): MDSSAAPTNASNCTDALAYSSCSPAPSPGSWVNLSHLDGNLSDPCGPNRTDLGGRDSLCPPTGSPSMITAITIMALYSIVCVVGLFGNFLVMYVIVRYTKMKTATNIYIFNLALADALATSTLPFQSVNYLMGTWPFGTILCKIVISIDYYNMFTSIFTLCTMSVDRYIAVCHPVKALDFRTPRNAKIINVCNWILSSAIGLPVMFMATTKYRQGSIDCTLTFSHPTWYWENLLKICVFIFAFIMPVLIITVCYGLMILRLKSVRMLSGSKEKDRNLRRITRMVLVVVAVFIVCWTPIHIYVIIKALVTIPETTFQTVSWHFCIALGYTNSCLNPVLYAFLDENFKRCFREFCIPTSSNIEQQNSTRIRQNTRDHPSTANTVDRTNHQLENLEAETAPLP

| SMILES | μ opioid receptor [1 μmol], % inhibition [%] | other results |
| --- | --- | --- |
| CN(C)C(c1ccc(Cl)cc1)C1CCC2(CC1)c1[nH]c3ccccc3c1CCN2C(=O)C1CCCCC1 (centres unmarked) [Compound 76, 2-(cyclohexylcarbonyl)-{1,1-[3-(dimethylamino-(4-chlorophenyl)methyl)-pentamethylene]-3,4-dihydro-1H-2,9-diazafluorene}] | 15 |  |
| CN(C)C(c1ccc(F)cc1)C1CCC2(CC1)c1[nH]c3ccccc3c1CCN2C(=O)COc1ccc(Cl)cc1 (centres unmarked) [Compound 65, 2-[(4-chlorophenoxy)acetyl]-{1,1-[3-(dimethylamino-(4-fluorophenyl)methyl)-pentamethylene]-3,4-dihydro-1H-2,9-diazafluorene}] | 17 |  |
| CN(C)C(c1cccc(F)c1)C1CCC2(CC1)c1[nH]c3ccccc3c1CCN2C(=O)CC(C)(C)C (centres unmarked) [Compound 66, 1-{1,1-[3-(dimethylamino-(3-fluorophenyl)methyl) -pentamethylene]-3,4-dihydro-1H-2,9-diazafluoren-2-yl}-3,3-dimethylbutan-1-one] | 26 |  |
| CN(C)C(c1ccccc1)C1CCC2(CC1)c1[nH]c3ccccc3c1CCN2C(=O)C=Cc1ccccc1Cl (centres unmarked) [Compound 61, 1-{1,1-[3-(dimethylamino-phenylmethyl)-pentamethylene]-3,4-dihydro-1H-2,9-diazafluoren-2-yl}-3-(2-chlorophenyl)prop-2-en-1-one] | 6 |  |
| CN(C)C(c1cccc(F)c1)C1CCC2(CC1)OCCc1c2[nH]c2ccc(F)cc12 (centres unmarked) [Compound 36, 6-Fluoro-1,1-[3-(dimethylamino-(3-fluorophenyl)-methyl)-pentamethylene]-1,3,4,9-tetrahydropyrano[3,4-b]indole] |  | inhibition at 1 µM (1 μM test substance, displacement of [3H]-naloxone, read-out: μ opioid receptor [1 μM], % inhibition): 102%; Ki (Cheng-Prusoff conversion from IC50, read-out: μ opioid receptor, Ki): 46 nM |
| COc1cccc(CC(=O)N2CCc3c([nH]c4ccccc34)C23CCC(C(c2ccc(F)cc2)N(C)C)CC3)c1 (centres unmarked) [Compound 140, 2-[(3-methoxyphenyl)acetyl]-{1,1-[3-(dimethylamino-(4-fluorophenyl)methyl)-pentamethylene]-3,4-dihydro-1H-2,9-diazafluorene}] | 47 |  |
| Cc1ccc2[nH]c3c(c2c1)CC(C)OC31CCC(C(CCc2ccccc2)N(C)C)CC1 (centres unmarked) [Compound 43, 3,6-Dimethyl-1,1-[3-(dimethylamino-(phenylethyl)-methyl)-pentamethylene]-1,3,4,9-tetrahydropyrano[3,4-b]indole] |  | μ opioid receptor [1 μM], % inhibition (1 μM test substance, displacement of [3H]-naloxone): 42% |
| CN(C)C(c1ccc(F)cc1)C1CCC2(CC1)c1[nH]c3ccccc3c1CCN2C(=O)C1CCCC1 (centres unmarked) [Compound 109, 2-cyclopentylcarbonyl-{1,1-[3-(dimethylamino-(4-fluorophenyl)methyl)-pentamethylene]-3,4-dihydro-1H-2,9-diazafluorene}] | 21 |  |
| CN(C)C(c1ccc(Cl)cc1)C1CCC2(CC1)c1[nH]c3ccccc3c1CCN2C(=O)CCc1ccccc1 (centres unmarked) [Compound 135, (3-phenylpropanoyl)-1-{1,1-[3-(dimethylamino-(4-chlorophenyl)methyl)-pentamethylene]-3,4-dihydro-1H-2,9-diazafluorene}] |  | μ opioid receptor [1 μmol], % inhibition (1 µM): 38% |
| CC(C)CC(=O)N1CCc2c([nH]c3ccccc23)C12CCC(C(c1ccccc1)N(C)C)CC2 (centres unmarked) [Compound 138, 1-{1,1-[3-(dimethylamino-phenylmethyl)-pentamethylene]-3,4-dihydro-1H-2,9-diazafluoren-2-yl}-3-methylbutan-1-one] | 58 |  |
| CCCCC(CC)C(=O)N1CCc2c([nH]c3ccccc23)C12CCC(C(c1cccc(F)c1)N(C)C)CC2 (centres unmarked) [Compound 111, 2-(2-ethylhexanoyl)-{1,1-[3-(dimethylamino-(3-fluorophenyl)methyl)-pentamethylene]-3,4-dihydro-1H-2,9-diazafluorene}] | 13 |  |
| Cc1ccc2sc(C(=O)N3CCc4c([nH]c5ccccc45)C34CCC(C(c3cccc(F)c3)N(C)C)CC4)cc2c1 (centres unmarked) [Compound 128, 2-[5-methylbenzothien-2-ylcarbonyl]-{1,1-[3-(dimethylamino-(3-fluorophenyl)methyl)-pentamethylene]-3,4-dihydro-1H-2,9-diazafluorene}] | 16 |  |
| CN(C)C(c1ccc(Cl)cc1)C1CCC2(CC1)c1[nH]c3ccccc3c1CCN2C(=O)CC(C)(C)C (centres unmarked) [Compound 73, 1-{1,1-[3-(dimethylamino-(4-chlorophenyl)methyl) -pentamethylene]-3,4-dihydro-1H-2,9-diazafluoren-2-yl}-3,3-dimethylbutan-1-one] | 24 |  |
| CN(C)C(c1ccc(F)cc1)C1CCC2(CC1)c1[nH]c3ccccc3c1CCN2C(=O)C=Cc1ccccc1 (centres unmarked) [Compound 86, 1-{1,1-[3-(dimethylamino-(4-fluorophenyl)methyl) -pentamethylene]-3,4-dihydro-1H-2,9-diazafluoren-2-yl}-3-phenylprop-2-en-1-one] | 12 |  |
| COc1ccc(CC(=O)N2CCc3c([nH]c4ccccc34)C23CCC(C(c2cccc(F)c2)N(C)C)CC3)cc1OC (centres unmarked) [Compound 67, 2-[(3,4-dimethoxyphenyl)acetyl]-{1,1-[3-(dimethylamino-(3-fluorophenyl)methyl)-pentamethylene]-3,4-dihydro-1H-2,9-diazafluorene}] | 25 |  |
| CN(C)C(c1ccc(Cl)cc1)C1CCC2(CC1)c1[nH]c3ccccc3c1CCN2C(=O)CCC1CCCC1 (centres unmarked) [Compound 95, 2-(3-cyclopentylpropanoyl)-{1,1-[3-(dimethylamino-(4-chlorophenyl)-methyl)-pentamethylene]-3,4-dihydro-1H-2,9-diazafluorene}] | 18 |  |
| CN(C)C(c1ccccc1)C1CCC2(CC1)c1[nH]c3ccccc3c1CCN2C(=O)COCc1ccccc1 (centres unmarked) [Compound 83, 2-(benzyloxyacetyl)-{1,1-[3-(dimethylamino-phenylmethyl) -pentamethylene]-3,4-dihydro-1H-2,9-diazafluorene}] | 50 |  |
| CC(Oc1ccccc1)C(=O)N1CCc2c([nH]c3ccccc23)C12CCC(C(c1ccccc1)N(C)C)CC2 (centres unmarked) [Compound 137, 2-(2-phenoxypropanoyl)-{1,1-[3-(dimethylamino-phenylmethyl)-pentamethylene]-3,4-dihydro-1H-2,9-diazafluorene}] | 68 |  |
| CC(=Cc1ccccc1)C(=O)N1CCc2c([nH]c3ccccc23)C12CCC(C(c1ccc(Cl)cc1)N(C)C)CC2 (centres unmarked) [Compound 75, 1-{1,1-[3-(dimethylamino-(4-chlorophenyl)methyl) -pentamethylene]-3,4-dihydro-1H-2,9-diazafluoren-2-yl}-2-methyl-3-phenylprop-2-en-1-one] | 13 |  |
| COc1cccc(CC(=O)N2CCc3c([nH]c4ccccc34)C23CCC(C(c2cccc(F)c2)N(C)C)CC3)c1 (centres unmarked) [Compound 126, 2-[(3-methoxyphenyl)acetyl]-{1,1-[3-(dimethylamino-(3-fluorophenyl)methyl)-pentamethylene]-3,4-dihydro-1H-2,9-diazafluorene}] | 50 |  |
| COc1cccc(CC(=O)N2CCc3c([nH]c4ccccc34)C23CCC(C(c2ccccc2)N(C)C)CC3)c1 (centres unmarked) [Compound 136, 2-[(3-methoxyphenyl)acetyl]-{1,1-[3-(dimethylamino-phenylmethyl)-pentamethylene]-3,4-dihydro-1H-2,9-diazafluorene}] | 75 |  |
| CCCCC(CC)C(=O)N1CCc2c([nH]c3ccccc23)C12CCC(C(c1ccc(Cl)cc1)N(C)C)CC2 (centres unmarked) [Compound 118, 2-(2-ethylhexanoyl)-{1,1-[3-(dimethylamino-(4-chlorophenyl)methyl)-pentamethylene]-3,4-dihydro-1H-2,9-diazafluorene}] | 35 |  |
| CN(C)C(c1ccccc1)C1CCC2(CC1)c1[nH]c3ccccc3c1CCN2C(=O)Cc1cccs1 (centres unmarked) [Compound 82, 2-(2-thienylacetyl)-{1,1-[3-(dimethylamino-phenylmethyl)-pentamethylene]-3,4-dihydro-1H-2,9-diazafluorene}] | 31 |  |
| CN(C)C(c1ccc(Cl)cc1)C1CCC2(CC1)c1[nH]c3ccccc3c1CCN2C(=O)COc1ccc(Cl)cc1 (centres unmarked) [Compound 77, 2-[(4-chlorophenoxy)acetyl]-{1,1-[3-(dimethylamino-(4-chlorophenyl)-methyl)-pentamethylene]-3,4-dihydro-1H-2,9-diazafluorene}] | 17 |  |
| CC(Oc1ccccc1)C(=O)N1CCc2c([nH]c3ccccc23)C12CCC(C(c1cccc(F)c1)N(C)C)CC2 (centres unmarked) [Compound 127, 2-(2-phenoxypropanoyl)-{1,1-[3-(dimethylamino-(3-fluorophenyl)methyl)-pentamethylene]-3,4-dihydro-1H-2,9-diazafluorene}] | 55 |  |
